Legend:
[1] = Inhibition 2[3H]mannose incorporation into glycoconjugates in lymphoblasts isolated from congenital disorders of glycosylation-Ia patient at 300 uM; assay type: functional; settings: Homo sapiens, Lymphoblast
[2] = Cytotoxicity in human lymphoblasts assessed as release of cellular lactate dehydrogenase at 300 uM after 16 hrs relative to methanol; assay type: cell-based; settings: lymphoblast

SMILES | inhibition at 300 µM [1] | Activity [2]
CC(=O)OC[C@H]1O[C@H](OP(=O)(Oc2ccccc2)O[C@H]2O[C@H](COC(C)=O)[C@@H](OC(C)=O)[C@H](OC(C)=O)[C@@H]2OC(C)=O)[C@@H](OC(C)=O)[C@@H](OC(C)=O)[C@@H]1OC(C)=O (single isomer, unassigned) | 26% | –
CC(=O)OC[C@H]1O[C@H](OP(=O)(Oc2cccc3ccccc23)O[C@H]2O[C@H](COC(C)=O)[C@@H](OC(C)=O)[C@H](OC(C)=O)[C@@H]2OC(C)=O)[C@@H](OC(C)=O)[C@@H](OC(C)=O)[C@@H]1OC(C)=O (single isomer, unassigned) | 56% | <= 25%
CCCC(=O)OC[C@H]1O[C@H](OP(=O)(OCc2ccccc2)O[C@H]2O[C@H](COC(=O)CCC)[C@@H](OC(=O)CCC)[C@H](OC(=O)CCC)[C@@H]2OC(=O)CCC)[C@@H](OC(=O)CCC)[C@@H](OC(=O)CCC)[C@@H]1OC(=O)CCC (single isomer, unassigned) | 71% | –
CC(C)C(=O)OC[C@H]1O[C@H](OP(=O)(Oc2ccccc2)O[C@H]2O[C@H](COC(=O)C(C)C)[C@@H](OC(=O)C(C)C)[C@H](OC(=O)C(C)C)[C@@H]2OC(=O)C(C)C)[C@@H](OC(=O)C(C)C)[C@@H](OC(=O)C(C)C)[C@@H]1OC(=O)C(C)C (single isomer, unassigned) | 78% | –

Reference: ChEMBL document CHEMBL1143770, “Mono, di and tri-mannopyranosyl phosphates as mannose-1-phosphate prodrugs for potential CDG-Ia therapy” (Bioorg Med Chem Lett, 2007)
